One assay addresses T1, CRF2R (Homo sapiens, UniProt Q13324).
T1 sequence (Q13324 1-411): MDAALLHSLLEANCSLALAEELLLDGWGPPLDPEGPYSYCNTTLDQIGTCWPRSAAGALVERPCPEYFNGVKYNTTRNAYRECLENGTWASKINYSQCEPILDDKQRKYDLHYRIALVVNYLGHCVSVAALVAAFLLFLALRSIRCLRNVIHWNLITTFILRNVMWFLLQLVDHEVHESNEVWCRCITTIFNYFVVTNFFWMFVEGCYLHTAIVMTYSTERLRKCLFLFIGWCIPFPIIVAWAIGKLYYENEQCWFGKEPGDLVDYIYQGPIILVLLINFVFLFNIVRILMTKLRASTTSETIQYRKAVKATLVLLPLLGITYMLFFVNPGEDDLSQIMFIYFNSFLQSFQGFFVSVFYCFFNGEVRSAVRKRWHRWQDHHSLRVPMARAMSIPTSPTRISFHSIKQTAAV
The assay is described as follows: CRF2R agonist activation (EC50 / Emax), called comparative CRF binding. Format: cell-based. As to conditions: for Emax: read-out: CRF2R Emax. The method, boiled down:
(§1)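 Cells expressing human CRF1R or CRF2R are exposed to peptide or vehicle control, and receptor activation is read as cAMP induction, measured in cell lysates or via a CRE-linked reporter gene.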

Another assay has as its target T2, CRF1R (Homo sapiens, UniProt P34998).
T2 sequence (P34998 24-415): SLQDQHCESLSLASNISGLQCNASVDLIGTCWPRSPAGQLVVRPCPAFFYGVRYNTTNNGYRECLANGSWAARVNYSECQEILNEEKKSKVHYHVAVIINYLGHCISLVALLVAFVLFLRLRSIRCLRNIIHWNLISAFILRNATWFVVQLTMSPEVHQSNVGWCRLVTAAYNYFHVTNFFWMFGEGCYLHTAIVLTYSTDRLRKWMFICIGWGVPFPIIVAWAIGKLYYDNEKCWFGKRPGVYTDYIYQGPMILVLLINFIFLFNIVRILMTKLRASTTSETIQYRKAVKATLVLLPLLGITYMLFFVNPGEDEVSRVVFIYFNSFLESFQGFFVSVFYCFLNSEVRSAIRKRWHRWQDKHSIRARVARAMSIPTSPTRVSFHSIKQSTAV
Briefly: CRF1R agonist activation (EC50 / Emax), called comparative CRF binding. Type of assay: cell-based. As to conditions: for Emax: read-out: CRF1R Emax. The method, boiled down:
as §1

Peptide text beside a SMILES is read from it.

As usually defined, the Emax is the greatest response seen or fitted, relative to the assay's reference. `CC[C@H](C)[C@H](N)C(=O)N[C@H](C(=O)N[C@@H](CC(C)C)C(=O)N[C@@H](CO)C(=O)N[C@@H](CC(C)C)C(=O)N[C@@H](CC(=O)O)C(=O)N[C@H](C(=O)N1CCC[C@H]1C(=O)N[C@H](C(=O)NCC(=O)N[C@@H](CC(C)C)C(=O)N[C@@H](CC(C)C)C(=O)N[C@@H](CCC(N)=O)C(=O)N[C@H](C(=O)N[C@@H](CC(C)C)C(=O)N[C@H](C(=O)N[C@@H](CCC(=O)O)C(=O)N[C@H](C(=O)N[C@@H](CCC(=O)O)C(=O)N[C@@H](CCCCN)C(=O)N[C@@H](CCC(N)=O)C(=O)N[C@@H](CCC(=O)O)C(=O)N[C@@H](CCCCN)C(=O)N[C@@H](CCC(=O)O)C(=O)N[C@@H](CCCCN)C(=O)N[C@@H](CCC(N)=O)C(=O)N[C@@H](CCC(N)=O)C(=O)N[C@@H](C)C(=O)N[C@@H](C)C(=O)N[C@@H](CC(N)=O)C(=O)N[C@@H](CC(N)=O)C(=O)N[C@@H](CCCNC(=N)N)C(=O)N[C@@H](CC(C)C)C(=O)N[C@@H](CC(C)C)C(=O)N[C@@H](CC(C)C)C(=O)N[C@@H](CC(=O)O)C(=O)N[C@H](C(=O)N[C@H](C(N)=O)[C@@H](C)CC)[C@@H](C)O)[C@@H](C)CC)[C@@H](C)CC)[C@@H](C)CC)[C@@H](C)CC)C(C)C)C(C)C` [compound 154] (H-IVLSLDVPIGLLQILIEIEKQEKEKQQAANNRLLLDTI-NH2; N-terminus assumed): the Emax on CRF2R came to 100%; at CRF1R, 7%.
Consider `CC[C@H](C)[C@H](N)C(=O)N[C@H](C(=O)N[C@@H](CC(C)C)C(=O)N[C@@H](CO)C(=O)N[C@@H](CC(C)C)C(=O)N[C@@H](CC(=O)O)C(=O)N[C@H](C(=O)N1CCC[C@H]1C(=O)N[C@H](C(=O)NCC(=O)N[C@@H](CC(C)C)C(=O)N[C@@H](CC(C)C)C(=O)N[C@@H](CCC(N)=O)C(=O)N[C@H](C(=O)N[C@@H](CC(C)C)C(=O)N[C@@H](CC(C)C)C(=O)N[C@@H](CCC(=O)O)C(=O)N[C@@H](CCSC)C(=O)N[C@H](C(=O)N[C@@H](CCCCN)C(=O)N[C@@H](C)C(=O)N[C@@H](CC(=O)O)C(=O)N[C@@H](CCC(N)=O)C(=O)N[C@@H](CC(C)C)C(=O)N[C@@H](C)C(=O)N[C@@H](CCC(N)=O)C(=O)N[C@@H](CCC(N)=O)C(=O)N[C@@H](C)C(=O)N[C@@H](Cc1c[nH]cn1)C(=O)N[C@@H](CO)C(=O)N[C@@H](CC(N)=O)C(=O)N[C@@H](CCCNC(=N)N)C(=O)N[C@@H](CCCCN)C(=O)N[C@@H](CC(C)C)C(=O)N[C@@H](CC(C)C)C(=O)N[C@@H](CC(=O)O)C(=O)N[C@H](C(=O)N[C@@H](C)C(N)=O)[C@@H](C)CC)[C@@H](C)O)[C@@H](C)CC)[C@@H](C)CC)C(C)C)C(C)C` [compound 155] (H-IVLSLDVPIGLLQILLEMTKADQLAQQAHSNRKLLDIA-NH2; N-terminus assumed), for which the Emax turned out to be 94% on CRF2R and 16% on CRF1R.
On the same counts, the results for `CC[C@H](C)[C@H](N)C(=O)N[C@H](C(=O)N[C@@H](CC(C)C)C(=O)N[C@@H](CO)C(=O)N[C@@H](CC(C)C)C(=O)N[C@@H](CC(=O)O)C(=O)N[C@H](C(=O)N1CCC[C@H]1C(=O)N[C@H](C(=O)NCC(=O)N[C@@H](CC(C)C)C(=O)N[C@@H](CC(C)C)C(=O)N[C@@H](CCC(N)=O)C(=O)N[C@H](C(=O)N[C@@H](CC(C)C)C(=O)N[C@@H](CC(C)C)C(=O)N[C@@H](CCC(=O)O)C(=O)N[C@H](C(=O)N[C@@H](CCC(=O)O)C(=O)N[C@@H](CCCCN)C(=O)N[C@@H](CCC(N)=O)C(=O)N[C@@H](CCC(=O)O)C(=O)N[C@@H](CCCCN)C(=O)N[C@@H](CCC(=O)O)C(=O)N[C@@H](CCCCN)C(=O)N[C@@H](CCC(N)=O)C(=O)N[C@@H](CCC(N)=O)C(=O)N[C@@H](C)C(=O)N[C@@H](C)C(=O)N[C@@H](CC(N)=O)C(=O)N[C@@H](CC(N)=O)C(=O)N[C@@H](CCCNC(=N)N)C(=O)N[C@@H](CC(C)C)C(=O)N[C@@H](CC(C)C)C(=O)N[C@@H](CC(C)C)C(=O)N[C@@H](CC(=O)O)C(=O)N[C@H](C(=O)N[C@H](C(N)=O)[C@@H](C)CC)[C@@H](C)O)[C@@H](C)CC)[C@@H](C)CC)[C@@H](C)CC)C(C)C)C(C)C` [compound 158] (H-IVLSLDVPIGLLQILLEIEKQEKEKQQAANNRLLLDTI-NH2) are 89% and 15%.
In the same order, the values of `CC[C@H](C)[C@H](N)C(=O)N[C@H](C(=O)N[C@@H](CC(C)C)C(=O)N[C@@H](CO)C(=O)N[C@@H](CC(C)C)C(=O)N[C@@H](CC(=O)O)C(=O)N[C@H](C(=O)N1CCC[C@H]1C(=O)N[C@H](C(=O)NCC(=O)N[C@@H](CC(C)C)C(=O)N[C@@H](CC(C)C)C(=O)N[C@@H](CCC(N)=O)C(=O)N[C@H](C(=O)N[C@@H](CC(C)C)C(=O)N[C@@H](CC(C)C)C(=O)N[C@@H](CCC(=O)O)C(=O)N[C@@H](CCC(N)=O)C(=O)N[C@H](C(=O)N[C@@H](CCCCN)C(=O)N[C@@H](C)C(=O)N[C@@H](CC(=O)O)C(=O)N[C@@H](CCC(N)=O)C(=O)N[C@@H](CC(C)C)C(=O)N[C@@H](C)C(=O)N[C@@H](CCC(N)=O)C(=O)N[C@@H](CCC(N)=O)C(=O)N[C@@H](C)C(=O)N[C@@H](Cc1c[nH]cn1)C(=O)N[C@@H](CO)C(=O)N[C@@H](CC(N)=O)C(=O)N[C@@H](CCCNC(=N)N)C(=O)N[C@@H](CCCCN)C(=O)N[C@@H](CC(C)C)C(=O)N[C@@H](CC(C)C)C(=O)N[C@@H](CC(=O)O)C(=O)N[C@H](C(=O)N[C@@H](C)C(N)=O)[C@@H](C)CC)[C@@H](C)O)[C@@H](C)CC)[C@@H](C)CC)C(C)C)C(C)C` [compound 159] (H-IVLSLDVPIGLLQILLEQTKADQLAQQAHSNRKLLDIA-NH2; N-terminus assumed) are 62% and 9%.
In the same order, the values of `CC[C@H](C)[C@H](N)C(=O)N[C@H](C(=O)N[C@@H](CC(C)C)C(=O)N[C@@H](CO)C(=O)N[C@@H](CC(C)C)C(=O)N[C@@H](CC(=O)O)C(=O)N[C@H](C(=O)N1CCC[C@H]1C(=O)N[C@H](C(=O)NCC(=O)N[C@@H](CC(C)C)C(=O)N[C@@H](CC(C)C)C(=O)N[C@@H](CCC(N)=O)C(=O)N[C@H](C(=O)N[C@@H](CC(C)C)C(=O)N[C@@H](CC(C)C)C(=O)N[C@@H](CCC(=O)O)C(=O)N[C@@H](CC(C)C)C(=O)N[C@@H](C)C(=O)N[C@@H](CCCNC(=N)N)C(=O)N[C@H](C(=O)N[C@@H](CCC(N)=O)C(=O)N[C@@H](CO)C(=O)N[C@@H](CCC(N)=O)C(=O)N[C@@H](CCCNC(=N)N)C(=O)N[C@@H](CCC(=O)O)C(=O)N[C@@H](CCCNC(=N)N)C(=O)N[C@@H](C)C(=O)N[C@@H](CCC(=O)O)C(=O)N[C@@H](CCC(N)=O)C(=O)N[C@@H](CC(N)=O)C(=O)N[C@@H](CCCNC(=N)N)C(=O)N[C@H](C(=O)N[C@H](C(=O)N[C@@H](Cc1ccccc1)C(=O)N[C@@H](CC(=O)O)C(=O)N[C@@H](CO)C(=O)N[C@H](C(N)=O)C(C)C)[C@@H](C)CC)[C@@H](C)CC)[C@@H](C)O)[C@@H](C)O)[C@@H](C)CC)C(C)C)C(C)C` [compound 160] (H-IVLSLDVPIGLLQTLLELARTQSQRERAEQNRIIFDSV-NH2; N-terminus assumed) are 87% and 10%.
As a reminder, the EC50 is the concentration giving half of the maximal effect. Consider `CC[C@H](C)[C@H](N)C(=O)N[C@H](C(=O)N[C@@H](CC(C)C)C(=O)N[C@@H](CO)C(=O)N[C@@H](CC(C)C)C(=O)N[C@@H](CC(=O)O)C(=O)N[C@H](C(=O)N1CCC[C@H]1C(=O)N[C@H](C(=O)NCC(=O)N[C@@H](CC(C)C)C(=O)N[C@@H](CC(C)C)C(=O)N[C@@H](CCC(N)=O)C(=O)N[C@H](C(=O)N[C@@H](CC(C)C)C(=O)N[C@@H](CC(C)C)C(=O)N[C@@H](CCC(=O)O)C(=O)N[C@@H](CCC(N)=O)C(=O)N[C@@H](C)C(=O)N[C@@H](CCCNC(=N)N)C(=O)N[C@@H](C)C(=O)N[C@@H](CCCNC(=N)N)C(=O)N[C@@H](C)C(=O)N[C@@H](C)C(=O)N[C@@H](CCCNC(=N)N)C(=O)N[C@@H](CCC(=O)O)C(=O)N[C@@H](CCC(N)=O)C(=O)N[C@@H](C)C(=O)N[C@H](C(=O)N[C@@H](CO)C(=O)N[C@@H](CC(N)=O)C(=O)N[C@@H](CCCNC(=N)N)C(=O)N[C@@H](CCCCN)C(=O)N[C@@H](CC(C)C)C(=O)N[C@@H](CCSC)C(=O)N[C@@H](CCC(=O)O)C(=O)N[C@H](C(=O)N[C@H](C(N)=O)[C@@H](C)CC)[C@@H](C)CC)[C@@H](C)O)[C@@H](C)CC)[C@@H](C)CC)C(C)C)C(C)C` [compound 163] (H-IVLSLDVPIGLLQILLEQARARAAREQATSNRKLMEII-NH2; N-terminus assumed), for which the figures for the EC50 on CRF2R (read-out: CRF2R EC50) and at CRF1R (read-out: CRF1R EC50) were 4.49 nM and > 100 nM, respectively. Further, the Emax on CRF2R amounted to 96%; on CRF1R, 13%.

Values taken from patent publication US6936585B2, “Corticotropin releasing factor 2 receptor agonists” (priority 2002, dated 2005).
